Source: the Kinase Knowledgebase extract (Sharma et al. 2016)

What was measured:
Test in all cases: Enzyme Assay
PIK3CB (Human) = PIK3CB (Human) (UniProt P42338)
PIK3CG (human) = PIK3CG (human) (UniProt P48736)
PIK3CA (human) = PIK3CA (human) (UniProt P42336)
PIK3CD (Human) = PIK3CD (Human) (UniProt O00329)
Chain of PIK3CD (Human) (O00329 whole entry, looked up): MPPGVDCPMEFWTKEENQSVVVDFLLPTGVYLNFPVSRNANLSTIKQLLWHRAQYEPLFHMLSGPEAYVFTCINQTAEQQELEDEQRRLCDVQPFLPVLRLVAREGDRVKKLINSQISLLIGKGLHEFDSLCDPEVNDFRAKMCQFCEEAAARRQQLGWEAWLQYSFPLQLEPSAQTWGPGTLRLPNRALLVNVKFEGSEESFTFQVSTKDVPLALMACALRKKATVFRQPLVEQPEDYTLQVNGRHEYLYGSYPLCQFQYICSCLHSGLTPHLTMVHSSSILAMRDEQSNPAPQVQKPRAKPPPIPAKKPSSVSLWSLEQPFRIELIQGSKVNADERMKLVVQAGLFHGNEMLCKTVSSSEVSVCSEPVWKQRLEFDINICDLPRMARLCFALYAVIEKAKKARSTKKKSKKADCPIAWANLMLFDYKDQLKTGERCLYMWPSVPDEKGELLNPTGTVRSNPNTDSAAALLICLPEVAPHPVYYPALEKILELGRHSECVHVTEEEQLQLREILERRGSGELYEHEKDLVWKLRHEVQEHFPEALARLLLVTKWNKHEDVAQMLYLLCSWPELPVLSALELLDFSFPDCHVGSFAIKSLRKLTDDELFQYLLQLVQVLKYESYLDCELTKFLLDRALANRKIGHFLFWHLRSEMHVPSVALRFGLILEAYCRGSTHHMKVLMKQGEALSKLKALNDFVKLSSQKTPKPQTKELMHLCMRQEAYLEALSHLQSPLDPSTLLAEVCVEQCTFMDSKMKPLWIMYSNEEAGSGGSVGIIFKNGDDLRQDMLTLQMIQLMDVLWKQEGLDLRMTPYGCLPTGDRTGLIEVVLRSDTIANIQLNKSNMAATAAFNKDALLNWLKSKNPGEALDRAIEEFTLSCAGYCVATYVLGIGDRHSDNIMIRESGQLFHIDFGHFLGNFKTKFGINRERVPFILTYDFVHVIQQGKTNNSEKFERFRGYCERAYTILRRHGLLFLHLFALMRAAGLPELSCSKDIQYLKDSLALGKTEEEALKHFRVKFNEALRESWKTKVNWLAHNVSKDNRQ

Chain of PIK3CA (human) (P42336 whole entry, looked up): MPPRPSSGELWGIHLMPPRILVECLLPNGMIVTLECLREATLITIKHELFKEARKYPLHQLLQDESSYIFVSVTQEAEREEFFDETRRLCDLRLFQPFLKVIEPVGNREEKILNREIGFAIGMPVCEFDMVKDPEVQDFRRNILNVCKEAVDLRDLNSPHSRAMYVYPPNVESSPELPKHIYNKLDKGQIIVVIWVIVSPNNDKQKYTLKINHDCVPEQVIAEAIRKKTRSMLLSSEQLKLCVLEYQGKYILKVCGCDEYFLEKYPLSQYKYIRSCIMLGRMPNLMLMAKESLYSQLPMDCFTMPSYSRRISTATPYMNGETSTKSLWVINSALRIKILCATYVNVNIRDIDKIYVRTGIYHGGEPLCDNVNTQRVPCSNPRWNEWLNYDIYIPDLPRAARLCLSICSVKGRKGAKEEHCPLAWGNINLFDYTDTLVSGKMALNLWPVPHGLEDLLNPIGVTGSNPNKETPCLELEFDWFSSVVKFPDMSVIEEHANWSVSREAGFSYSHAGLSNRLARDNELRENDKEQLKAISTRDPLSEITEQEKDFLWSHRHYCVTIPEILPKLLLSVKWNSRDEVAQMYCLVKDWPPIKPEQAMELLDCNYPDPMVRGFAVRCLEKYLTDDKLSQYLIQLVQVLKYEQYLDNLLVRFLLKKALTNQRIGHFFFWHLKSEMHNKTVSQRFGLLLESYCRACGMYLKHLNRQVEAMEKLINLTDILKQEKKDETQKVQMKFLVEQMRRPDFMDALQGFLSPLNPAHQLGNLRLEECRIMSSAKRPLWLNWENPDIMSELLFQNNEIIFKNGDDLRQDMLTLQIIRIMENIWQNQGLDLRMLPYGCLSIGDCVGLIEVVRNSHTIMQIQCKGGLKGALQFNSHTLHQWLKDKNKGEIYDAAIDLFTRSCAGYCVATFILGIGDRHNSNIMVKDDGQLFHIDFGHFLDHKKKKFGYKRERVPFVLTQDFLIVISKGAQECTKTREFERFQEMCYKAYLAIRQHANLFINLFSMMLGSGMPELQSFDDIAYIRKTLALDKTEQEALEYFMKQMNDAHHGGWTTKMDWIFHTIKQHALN
Chain of PIK3CG (human) (P48736 whole entry, looked up): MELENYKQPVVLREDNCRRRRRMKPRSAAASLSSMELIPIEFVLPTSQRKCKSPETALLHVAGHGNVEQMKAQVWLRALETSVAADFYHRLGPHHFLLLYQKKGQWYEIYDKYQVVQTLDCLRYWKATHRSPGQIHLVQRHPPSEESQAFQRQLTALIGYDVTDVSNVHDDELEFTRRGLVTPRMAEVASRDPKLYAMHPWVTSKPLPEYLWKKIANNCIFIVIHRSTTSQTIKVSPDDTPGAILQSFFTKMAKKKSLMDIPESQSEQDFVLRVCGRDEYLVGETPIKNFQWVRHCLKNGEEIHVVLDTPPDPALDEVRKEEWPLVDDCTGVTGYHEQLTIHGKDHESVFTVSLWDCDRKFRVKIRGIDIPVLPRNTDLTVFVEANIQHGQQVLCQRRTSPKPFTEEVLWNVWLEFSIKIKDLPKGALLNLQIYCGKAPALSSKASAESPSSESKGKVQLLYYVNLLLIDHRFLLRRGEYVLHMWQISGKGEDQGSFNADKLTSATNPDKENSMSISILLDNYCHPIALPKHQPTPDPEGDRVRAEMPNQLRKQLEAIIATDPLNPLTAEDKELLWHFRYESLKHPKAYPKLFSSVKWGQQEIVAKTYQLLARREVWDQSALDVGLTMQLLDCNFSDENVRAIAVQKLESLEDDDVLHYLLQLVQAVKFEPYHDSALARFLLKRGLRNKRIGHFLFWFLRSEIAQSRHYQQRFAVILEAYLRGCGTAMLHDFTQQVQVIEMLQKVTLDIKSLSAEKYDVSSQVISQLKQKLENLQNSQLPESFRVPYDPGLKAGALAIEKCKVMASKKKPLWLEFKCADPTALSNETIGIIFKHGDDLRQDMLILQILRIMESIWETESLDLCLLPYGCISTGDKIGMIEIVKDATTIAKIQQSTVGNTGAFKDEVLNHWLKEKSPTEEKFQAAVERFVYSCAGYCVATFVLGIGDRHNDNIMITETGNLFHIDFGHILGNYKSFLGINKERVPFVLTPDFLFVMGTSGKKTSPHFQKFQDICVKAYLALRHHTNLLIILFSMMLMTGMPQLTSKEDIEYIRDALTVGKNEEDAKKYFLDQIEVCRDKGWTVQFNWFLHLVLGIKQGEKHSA
Chain of PIK3CB (Human) (P42338 whole entry, looked up): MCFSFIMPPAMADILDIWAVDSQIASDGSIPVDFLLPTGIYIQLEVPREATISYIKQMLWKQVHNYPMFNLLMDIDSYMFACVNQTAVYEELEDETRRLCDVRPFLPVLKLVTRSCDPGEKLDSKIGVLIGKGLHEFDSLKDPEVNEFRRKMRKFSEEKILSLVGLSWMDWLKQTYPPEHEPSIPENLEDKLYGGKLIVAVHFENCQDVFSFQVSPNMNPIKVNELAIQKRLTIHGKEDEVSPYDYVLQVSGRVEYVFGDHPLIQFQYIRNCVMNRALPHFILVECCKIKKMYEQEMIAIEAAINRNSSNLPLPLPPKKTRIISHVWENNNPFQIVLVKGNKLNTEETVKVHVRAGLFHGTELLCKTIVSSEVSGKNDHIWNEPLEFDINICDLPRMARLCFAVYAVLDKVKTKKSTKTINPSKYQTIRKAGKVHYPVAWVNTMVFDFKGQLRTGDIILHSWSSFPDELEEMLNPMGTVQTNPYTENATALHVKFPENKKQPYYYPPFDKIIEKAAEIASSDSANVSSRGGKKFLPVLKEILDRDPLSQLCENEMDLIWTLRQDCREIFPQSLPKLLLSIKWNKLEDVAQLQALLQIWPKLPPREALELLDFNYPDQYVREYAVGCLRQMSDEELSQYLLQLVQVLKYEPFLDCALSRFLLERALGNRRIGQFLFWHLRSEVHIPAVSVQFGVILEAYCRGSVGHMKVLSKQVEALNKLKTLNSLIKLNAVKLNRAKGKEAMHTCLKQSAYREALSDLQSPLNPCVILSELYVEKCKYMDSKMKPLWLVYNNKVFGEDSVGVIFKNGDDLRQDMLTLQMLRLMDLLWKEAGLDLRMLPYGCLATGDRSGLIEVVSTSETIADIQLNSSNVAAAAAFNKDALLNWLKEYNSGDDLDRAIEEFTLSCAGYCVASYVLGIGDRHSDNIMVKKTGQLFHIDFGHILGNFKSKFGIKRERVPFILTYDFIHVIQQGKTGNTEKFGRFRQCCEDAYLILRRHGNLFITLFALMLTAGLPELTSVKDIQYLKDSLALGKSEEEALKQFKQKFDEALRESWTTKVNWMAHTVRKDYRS

C[C@H](N)CC(=O)N1CCN(c2nc(N3CCOCC3)nc(-n3c(C(F)F)nc4ccccc43)n2)CC1
IC50 (PIK3CB (Human)): 1.3 µM | IC50 (PIK3CG (human)): 7.5 µM | IC50 (PIK3CA (human)): 3 µM | IC50 (PIK3CD (Human)): 0.11 µM

NCCCC(=O)N1CCN(c2nc(N3CCOCC3)nc(-n3c(C(F)F)nc4ccccc43)n2)CC1
IC50 (PIK3CB (Human)): 0.081 µM | IC50 (PIK3CG (human)): 7.5 µM | IC50 (PIK3CA (human)): 0.85 µM | IC50 (PIK3CD (Human)): 0.077 µM

CCC(C)[C@H](N)C(=O)N1CCN(c2nc(N3CCOCC3)nc(-n3c(C(F)F)nc4ccccc43)n2)CC1 (some centres not stated)
IC50 (PIK3CB (Human)): 0.067 µM | IC50 (PIK3CG (human)): > 10 µM | IC50 (PIK3CD (Human)): 1 µM

N[C@@H](Cc1ccccc1)C(=O)N1CCN(c2nc(N3CCOCC3)nc(-n3c(C(F)F)nc4ccccc43)n2)CC1
IC50 (PIK3CG (human)): > 100 µM

O=C(C1CCNCC1)N1CCN(c2nc(-c3cccc(O)c3)nc(N3CCOCC3)n2)CC1
IC50 (PIK3CB (Human)): 3.2 µM | IC50 (PIK3CG (human)): 6.5 µM | IC50 (PIK3CA (human)): 1.5 µM | IC50 (PIK3CD (Human)): 0.33 µM

O=C(C[C@H]1CCCN1)N1CCN(c2nc(-c3cccc(O)c3)nc(N3CCOCC3)n2)CC1
IC50 (PIK3CB (Human)): 1.6 µM | IC50 (PIK3CG (human)): 5.5 µM | IC50 (PIK3CA (human)): 4.4 µM | IC50 (PIK3CD (Human)): 0.026 µM

N[C@@H](Cc1ccccc1)C(=O)N1CCN(c2nc(-c3cccc(O)c3)nc(N3CCOCC3)n2)CC1
IC50 (PIK3CB (Human)): 0.19 µM | IC50 (PIK3CG (human)): > 100 µM | IC50 (PIK3CA (human)): 19 µM | IC50 (PIK3CD (Human)): 8.9 µM

N[C@H](CC(=O)N1CCN(c2nc(N3CCOCC3)nc(-n3c(C(F)F)nc4ccccc43)n2)CC1)Cc1ccccc1
IC50 (PIK3CB (Human)): 7.1 µM | IC50 (PIK3CG (human)): > 100 µM | IC50 (PIK3CA (human)): 26 µM | IC50 (PIK3CD (Human)): 2.8 µM

CSCC[C@H](N)C(=O)N1CCN(c2nc(N3CCOCC3)nc(-n3c(C(F)F)nc4ccccc43)n2)CC1
IC50 (PIK3CB (Human)): 0.483 µM | IC50 (PIK3CA (human)): 13 µM | IC50 (PIK3CD (Human)): 2.95 µM

N[C@H](CC(=O)N1CCN(c2nc(-c3cccc(O)c3)nc(N3CCOCC3)n2)CC1)Cc1ccccc1
IC50 (PIK3CB (Human)): 1.8 µM | IC50 (PIK3CG (human)): > 100 µM | IC50 (PIK3CA (human)): 62 µM | IC50 (PIK3CD (Human)): 17 µM

N[C@H](Cc1ccccc1)C(=O)N1CCN(c2nc(N3CCOCC3)nc(-n3c(C(F)F)nc4ccccc43)n2)CC1
IC50 (PIK3CB (Human)): 78 µM | IC50 (PIK3CG (human)): 58 µM

Cc1cc(C(C)Nc2ccccc2)c2nc(N3CCOCC3)cc(=O)n2c1 (configuration not stated)
IC50 (PIK3CA (human)): 5.07 µM | IC50 (PIK3CD (Human)): 0.376 µM

C[C@@H](N)CC(=O)N1CCN(c2nc(-c3cccc(O)c3)nc(N3CCOCC3)n2)CC1
IC50 (PIK3CB (Human)): 1.7 µM | IC50 (PIK3CG (human)): 16 µM | IC50 (PIK3CA (human)): 2.2 µM | IC50 (PIK3CD (Human)): 1.3 µM

CC(C)C[C@H](N)CC(=O)N1CCN(c2nc(-c3cccc(O)c3)nc(N3CCOCC3)n2)CC1
IC50 (PIK3CB (Human)): 19 µM | IC50 (PIK3CG (human)): > 100 µM | IC50 (PIK3CA (human)): 21 µM | IC50 (PIK3CD (Human)): 9.1 µM
